Data: ChEMBL document CHEMBL3112510, “Optimization, pharmacophore modeling and 3D-QSAR studies of sipholanes as breast cancer migration and proliferation inhibitors” (Eur J Med Chem, 2014)

Columns and labels:
MDA-MB-231 [1] = assay: Antimigratory activity in human MDA-MB-231 cells after 24 hrs by wound healing assay; settings: MDA-MB-231, 24 h
MDA-MB-231 [2] = assay: Antiproliferative activity against human MDA-MB-231 cells after 72 hrs by MTT assay; settings: MDA-MB-231, 72 h
MCF7 = assay: cells; settings: Homo sapiens, MCF7, 72 h

SMILES | IC50 (MDA-MB-231 [1]) [µM] | IC50 (MDA-MB-231 [1]; read-out: pIC50 (converted)) [µM] | IC50 (MDA-MB-231 [2]) [µM] | IC50 (MCF7) [µM]
CC1=CCC2C(CC[C@@]2(C)O)C(C)(C)C1CC[C@@H]1[C@@]2(C)CCC(=O)C(C)(C)O[C@@H]2CC[C@]1(C)O (stereo not given in full) [SIPHOLENONE A] | 28.1 | 28.1 | > 50 | > 50
CC1=C(CC[C@H]2[C@]3(C)CC[C@H](O)C(C)(C)O[C@H]3CC[C@@]2(C)O)[C@@H]2[C@H](C[C@H]1C(=O)O)[C@@](C)(O)CCC2(C)C | 45 | 45 | > 50 | 39.8
CC1=CC[C@H]2[C@H](CC[C@]2(C)O)C(C)(C)[C@@H]1CC[C@H]1[C@]2(C)CC/C(=N/OCc3ccccc3)C(C)(C)O[C@H]2CC[C@@]1(C)O | 31.4 | 31.4 | 38.2 | > 50
C[C@@H]1CC[C@H]2[C@@H](/C1=C/C[C@H]1[C@]3(C)CCC(=O)C(C)(C)O[C@H]3CC[C@@]1(C)O)C(C)(C)CC[C@]2(C)O | 28 | 28 | > 50 | > 50
CC1=CC[C@H]2[C@@H]1CC=C(C)[C@@H](CC[C@H]1[C@]3(C)CC[C@H](OC(=O)c4ccncc4)C(C)(C)O[C@H]3CC[C@@]1(C)O)C2(C)C | 9.5 | 9.51 | 19.1 | > 50
CC1=CC[C@H]2[C@H](CC[C@]2(C)O)C(C)(C)[C@@H]1CC[C@@H]1[C@](C)(O)[C@H](O)C[C@@H]2OC(C)(C)[C@@H](O)CC[C@]21C | > 50 | 22.4 | > 50 | > 50
CC1=CC[C@H]2[C@H](CC[C@]2(C)O)C(C)(C)[C@@H]1CC[C@H]1[C@]2(C)CC[C@@H](O)O[C@H]2CC[C@@]1(C)O | 48 | 48 | > 50 | > 50
C[C@@H]1C(=O)C[C@H]2[C@@H](/C1=C/C[C@H]1[C@]3(C)CC[C@H](O)C(C)(C)O[C@H]3CC[C@@]1(C)O)C(C)(C)CC[C@]2(C)O | > 50 | 69 | > 50 | > 50
CC1(C)O[C@H]2CC[C@@](C)(O)[C@@H](CC[C@H]3C(C)(C)[C@@]4(O)CC[C@](C)(O)[C@H]4C[C@H]4O[C@]43C)[C@]2(C)CC[C@@H]1O | > 50 | 36.2 | > 50 | > 50
CC1=CCC2C(CC[C@@]2(C)O)C(C)(C)C1CC[C@@H]1[C@@]2(C)CC[C@@H](O)C(C)(C)O[C@@H]2CC[C@]1(C)O (stereo not given in full) [SIPHOLENOL A] | 37.5 | 37.5 | > 50 | 44.5
CC(=O)O[C@H]1CC[C@]2(C)[C@H](CC[C@@](C)(O)[C@H]2CC[C@@H]2C(C)=CC[C@H]3[C@H](CC[C@]3(C)O)C2(C)C)OC1(C)C | 16.8 |  | 38 | 47.9
CC(C)=CCC[C@@]1(C)C(CC[C@H]2[C@]3(C)CC[C@H](O)C(C)(C)O[C@H]3CC[C@@]2(C)O)=C(C)CC[C@H]1O [SIPHONELLINOL D] | > 50 | 67.3 | > 50 | > 50
CC(=O)O[C@H]1CC[C@]2(C)[C@H](CC[C@@](C)(O)[C@H]2CC[C@@H]2C(C)=CC[C@H]3[C@H](CC[C@]3(C)OC(C)=O)C2(C)C)OC1(C)C | 20.3 | 20.3 | 26.2 | 39.2
C[C@H]1C(=O)C[C@@H]2[C@@](C)(O)CC[C@]2(O)C(C)(C)[C@@H]1CC[C@H]1[C@]2(C)CCC(=O)C(C)(C)O[C@H]2CC[C@@]1(C)O | 38.3 | 38.3 | > 50 | > 50
CC1=CC[C@H]2[C@H](CC[C@]2(C)O)C(C)(C)[C@@H]1CC[C@H]1[C@]2(C)CC[C@H](OC(=O)NS(=O)(=O)c3ccc(C)cc3)C(C)(C)O[C@H]2CC[C@@]1(C)O | 18 |  | 47.1 | > 50
CC1=CC[C@H]2[C@H](CC[C@]2(C)O)C(C)(C)[C@@H]1CC[C@H]1[C@]2(C)CC[C@H](OC(=O)c3ccc(Cl)cc3)C(C)(C)O[C@H]2CC[C@@]1(C)O | 5.3 | 5.3 | 10.3 | 24.1
CC1=CC[C@H]2[C@H](CC[C@]2(C)O)C(C)(C)[C@@H]1CC[C@H]1[C@]2(C)CC[C@H](OC(=O)c3ccncc3)C(C)(C)O[C@H]2CC[C@@]1(C)O | 10.6 | 10.6 | 18 | 25.3
CC1=CC[C@H]2[C@H](CC[C@]2(C)O)C(C)(C)[C@@H]1CC[C@H]1[C@]2(C)CC/C(=N/O)C(C)(C)O[C@H]2CC[C@@]1(C)O | > 50 | 52.7 | 42.7 | 46.8
